Measured values as given in the NIST ThermoML archive (doi:10.1016/j.jct.2013.01.012).

Columns and labels:
[1] = refractive index (Na D-line) (dimensionless); mn = molality of the nth substance listed, in mol/kg; conditions: 101 kPa, Liquid, Standard Abbe refractometry
[2] = mn = molality of the nth substance listed, in mol/kg; conditions: 101 kPa, Liquid; for speed of sound: Sing-around technique in a fixed-path interferometer; for mass density: Vibrating tube method

O=P([O-])([O-])O.[K+].[K+] [dipotassium hydrogen phosphate] + O
Conditions	mass density, 298.15 K [kg/m3]	mass density, 303.15 K [kg/m3]	mass density, 308.15 K [kg/m3]	refractive index, 298.15 K	refractive index, 303.15 K	refractive index, 308.15 K	speed of sound, 298.15 K [m/s]	speed of sound, 303.15 K [m/s]	speed of sound, 308.15 K [m/s]
[1], m1 = 0.1	–	–	–	1.3354	1.3346	1.334	–	–	–
[1], m1 = 0.3	–	–	–	1.3404	1.3397	1.3392	–	–	–
[1], m1 = 0.5	–	–	–	1.3456	1.3453	1.3445	–	–	–
[1], m1 = 0.7	–	–	–	1.3506	1.35	1.3495	–	–	–
[1], m1 = 0.9	–	–	–	1.3557	1.3554	1.3547	–	–	–
[2], m1 = 0.1	1016.33	1015.38	1014.18	–	–	–	1512.8	1525.1	1535.6
[2], m1 = 0.3	1041.48	1040.03	1038.39	–	–	–	1542.9	1553.8	1563.4
[2], m1 = 0.5	1072.35	1071.14	1069.06	–	–	–	1574.6	1584.6	1593.3
[2], m1 = 0.7	1103.77	1103.01	1103.01	–	–	–	1607.3	1616.8	1626
[2], m1 = 0.9	1135.65	1136.16	1134.44	–	–	–	1641.6	1651.1	1657.8

O=P([O-])([O-])O.[Na+].[Na+] [disodium hydrogen phosphate] + O
Conditions	mass density, 298.15 K [kg/m3]	mass density, 303.15 K [kg/m3]	mass density, 308.15 K [kg/m3]	refractive index, 298.15 K	refractive index, 303.15 K	refractive index, 308.15 K	speed of sound, 298.15 K [m/s]	speed of sound, 303.15 K [m/s]	speed of sound, 308.15 K [m/s]
[1], m1 = 0.1	–	–	–	1.3354	1.3347	1.3344	–	–	–
[1], m1 = 0.3	–	–	–	1.3408	1.3404	1.3398	–	–	–
[1], m1 = 0.5	–	–	–	1.3457	1.3456	1.3448	–	–	–
[1], m1 = 0.7	–	–	–	1.3512	1.3507	1.3499	–	–	–
[1], m1 = 0.9	–	–	–	1.3562	1.3557	1.3552	–	–	–
[2], m1 = 0.1	1010.86	1009.51	1008.19	–	–	–	1514.6	1526.5	1537
[2], m1 = 0.3	1038.69	1037	1035.61	–	–	–	1549.5	1560.1	1569.8
[2], m1 = 0.5	1066.76	1069.09	1051.41	–	–	–	1583.5	1598.6	1588.7
[2], m1 = 0.7	1096.95	1095.37	1099.82	–	–	–	1621.3	1630	1646.2
[2], m1 = 0.9	1129.62	1128.52	1162.21	–	–	–	1663.2	1672.3	1685.8

O=P([O-])(O)O.[Li+] [lithium dihydrogen phosphate] + O
Conditions	mass density, 298.15 K [kg/m3]	mass density, 303.15 K [kg/m3]	mass density, 308.15 K [kg/m3]	refractive index, 298.15 K	refractive index, 303.15 K	refractive index, 308.15 K	speed of sound, 298.15 K [m/s]	speed of sound, 303.15 K [m/s]	speed of sound, 308.15 K [m/s]
[1], m1 = 0.1	–	–	–	1.3342	1.3332	1.3327	–	–	–
[1], m1 = 0.3	–	–	–	1.3365	1.3363	1.3355	–	–	–
[1], m1 = 0.5	–	–	–	1.3394	1.339	1.3387	–	–	–
[1], m1 = 0.7	–	–	–	1.3421	1.3418	1.3414	–	–	–
[1], m1 = 0.9	–	–	–	1.3452	1.3448	1.3444	–	–	–
[2], m1 = 0.1	1004.55	1003.21	1001.59	–	–	–	1506.5	1518.5	1528.8
[2], m1 = 0.3	1018.97	1017.71	1016.05	–	–	–	1525.5	1536.8	1546.5
[2], m1 = 0.5	1033.8	1032.57	1031.29	–	–	–	1544.1	1555	1564.5
[2], m1 = 0.7	1048.96	1048.1	1046.58	–	–	–	1569.2	1573.7	1582.6
[2], m1 = 0.9	1064.91	1063.79	1055.48	–	–	–	1582.6	1593	1593.1

O=P([O-])(O)O.[K+] [monopotassium phosphate] + O
Conditions	mass density, [2] [kg/m3]	refractive index, [1]	speed of sound, [2] [m/s]
298.15 K, m1 = 0.1	1007.01	1.3343	1506.5
298.15 K, m1 = 0.3	1026.44	1.3374	1524.5
298.15 K, m1 = 0.5	1046.68	1.3401	1542.1
298.15 K, m1 = 0.7	1066.58	1.3435	–
298.15 K, m1 = 0.9	1088.28	1.3466	1577.6
303.15 K, m1 = 0.1	1005.58	1.3336	1518.4
303.15 K, m1 = 0.3	1025.15	1.3368	1536
303.15 K, m1 = 0.5	1045.29	1.3397	1553.2
303.15 K, m1 = 0.7	1065.65	1.3427	1570.1
303.15 K, m1 = 0.9	1087.42	1.3463	1587.9
308.15 K, m1 = 0.1	1004.16	1.333	1528.8
308.15 K, m1 = 0.3	1023.58	1.3361	1545.8
308.15 K, m1 = 0.5	1044.55	1.3392	1563.1
308.15 K, m1 = 0.7	1065.08	1.3423	1580
308.15 K, m1 = 0.9	1086.5	1.3455	1596.6
